Values of other authors as cited in patent US4197292A, “Novel amylase inhibitors” (Taisho Pharmaceutical Co., priority 1978, dated 1980).

Tested on: β-glucosidase
Conditions: prior art inhibitor

## OC[C@H]1NC(O)[C@H](O)[C@@H](O)[C@@H]1O (stereo partly shown) [Nojirimycin]
  inhibitory activity to β-glucosidase (in words): has inhibitory activity
